Measured values: the supplement of paper PMC11919725

Legend:
Jurkat [1] = experiment: metabolic activity relative to DMSO, 18 h (ratio); higher = more viable
In short: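 Jurkat or primary CD4+/CD8+ T cells (naive, or activated 48 h with CD3/CD28 Dynabeads) were treated 18 h with compound at 1 nM–10 µM (log10 steps) at 37 °C, 5% CO2. Then 100 µl of suspension went into 96-well plates with alamarBlue (10% v/v final). After 3.5 h, fluorescence was read on a FluoStar Omega (excitation 544 nm, emission 584 nm). Metabolic activity is normalised to mean DMSO controls.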

Jurkat [2] = experiment: confluency relative to DMSO, 18 h (ratio); higher = more viable
In short: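 Jurkat cells and primary CD4+/CD8+ T cells, naive or activated with CD3/CD28 Dynabeads for 48 h, were treated with compound (1 nM–10 µM, log10 steps) for 18 h at 37 °C. Following transfer of 100 µl into 96-well plates with IncuCyte Cytotox Dye and alamarBlue, wells were imaged at ×10, five images per well, each hour for 3 h. Confluency, obtained with the IncuCyte Basic Analyzer from phase-contrast images, is normalised to the mean of the control wells.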

Jurkat [3] = experiment: cytotoxicity relative to DMSO, 18 h (ratio); higher = less cell death (drugs called cytotoxic fall below 1)
In short: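 Fluorescence was imaged at ×10, five images per well, every hour for 3 h, in 96-well plates holding 100 µl of treated cell suspension and IncuCyte Cytotox Dye at 250 nM final. Before plating, Jurkat cells or primary CD4+/CD8+ T cells (naive, or activated 48 h with CD3/CD28 Dynabeads) had been treated for 18 h with compound across 1 nM–10 µM in log10 steps at 37 °C, 5% CO2. Cytotoxicity values were based on these IncuCyte signals after confluency correction and normalisation to the mean of control wells.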

Row | SMILES | metabolic activity (Jurkat [1]; 1 nM) | metabolic activity (Jurkat [1]; 10 nM) | metabolic activity (Jurkat [1]; 100 nM) | metabolic activity (Jurkat [1]; 1000 nM) | metabolic activity (Jurkat [1]; 10000 nM) | confluency (Jurkat [2]; 1 nM) | confluency (Jurkat [2]; 10 nM) | confluency (Jurkat [2]; 100 nM) | confluency (Jurkat [2]; 1000 nM) | confluency (Jurkat [2]; 10000 nM) | cytotoxicity (Jurkat [3]; 1 nM) | cytotoxicity (Jurkat [3]; 10 nM) | cytotoxicity (Jurkat [3]; 100 nM) | cytotoxicity (Jurkat [3]; 1000 nM) | cytotoxicity (Jurkat [3]; 10000 nM)
1 | COc1cc2c(c(OC)c1OC)-c1ccc(OC)c(=O)cc1C(NC(C)=O)CC2 (stereo not given) [Colchicine] | 0.862 | 0.83 | 0.595 | 0.519 | 0.476 | 1 | 1.03 | 0.72 | 0.663 | 0.637 | 0.985 | 1.19 | 0.649 | 0.552 | 0.539
2 | COc1c(OCCCN2CCOCC2)ccc2c3n(c(=NC(=O)c4cnc(N)nc4)nc12)CCN3 [Copanlisib] | 1.04 | 1.06 | 0.753 | 0.523 | 0.435 | 0.918 | 1.05 | 0.903 | 0.789 | 0.932 | 0.843 | 1.05 | 0.885 | 0.619 | 0.712
3 | CC(Oc1cc(-c2cnn(C3CCNCC3)c2)cnc1N)c1c(Cl)ccc(F)c1Cl (stereo not given) [Crizotinib] | 0.831 | 0.944 | 0.836 | 0.975 | 0.882 | 1.1 | 0.657 | 1 | 0.919 | 0.771 | 0.908 | 0.369 | 1.08 | 0.848 | 0.768
4 | O=P1(N(CCCl)CCCl)NCCCO1 (stereo not given) [Cyclophosphamide] | 1.14 | 1.07 | 1.04 | 1.02 | 1.03 | 1.01 | 0.94 | 0.948 | 0.977 | 0.951 | 1.16 | 0.989 | 0.959 | 0.983 | 0.977
5 | CC(C)(C)c1nc(-c2cccc(NS(=O)(=O)c3c(F)cccc3F)c2F)c(-c2ccnc(N)n2)s1 [Dabrafenib] | 0.973 | 1.02 | 0.992 | 0.91 | 0.73 | 0.98 | 1 | 0.973 | 0.971 | 0.965 | 0.941 | 0.994 | 0.966 | 0.846 | 0.863
6 | Cn1c(=O)n(-c2ccc(C(C)(C)C#N)cc2)c2c3cc(-c4cnc5ccccc5c4)ccc3ncc21 [Dactolisib] | 0.966 | 0.894 | 0.652 | 0.601 | 0.578 | 0.986 | 0.909 | 0.978 | 1.05 | 0.946 | 0.958 | 0.809 | 0.746 | 0.927 | 0.822
7 | Cc1nc(Nc2ncc(C(=O)Nc3c(C)cccc3Cl)s2)cc(N2CCN(CCO)CC2)n1 [Dasatinib] | 1.07 | 1.07 | 1.01 | 0.989 | 0.845 | 0.949 | 0.946 | 0.958 | 0.965 | 0.91 | 0.993 | 0.967 | 0.979 | 0.994 | 0.882
8 | CCC(C)(Nc1ccnc(-c2c[nH]c3ncccc23)n1)C(=O)NCC(F)(F)F (stereo not given) [Decernotinib] | 1.08 | 1.08 | 1.02 | 1.05 | 1.07 | 1.03 | 1.03 | 0.996 | 0.993 | 0.96 | 1.1 | 1.09 | 1.01 | 1.04 | 1.03
9 | Nc1ncn(C2CC(O)C(CO)O2)c(=O)n1 (stereo not given) [Decitabine] | 1.05 | 1.04 | 1.02 | 0.948 | 0.867 | 1.02 | 1.01 | 0.986 | 0.972 | 0.939 | 0.966 | 0.964 | 0.922 | 0.869 | 0.862
10 | CCc1cnn2c(NCc3ccc[n+]([O-])c3)cc(N3CCCCC3CCO)nc12 (stereo not given) [Dinaciclib] | 0.162 | 0.147 | 0.13 | 0.139 | 0.128 | 0.988 | 1.02 | 0.864 | 0.871 | 1.16 | 0.926 | 1.03 | 0.821 | 0.989 | 1.09
11 | Cn1cc(-c2ccc(S(=O)(=O)n3ccc(C=CC(=O)Nc4ccccc4N)c3)cc2)cn1 [Domatinostat] | 1.1 | 1.12 | 1.03 | 0.922 | 0.704 | 0.879 | 0.91 | 0.901 | 1.03 | 0.63 | 0.906 | 0.925 | 0.886 | 1.06 | 0.636
12 | COc1cccc2c1C(=O)c1c(O)c3c(c(O)c1C2=O)CC(O)(C(=O)CO)CC3OC1CC(N)C(O)C(C)O1 (stereo not given) [Doxorubicin] | 1.09 | 0.901 | 0.89 | 0.823 | 0.342 | 1.04 | 0.98 | 0.995 | 0.993 | 1.07 | 1.05 | 0.983 | 0.967 | 0.871 | 0.618
13 | Nc1ccccc1NC(=O)c1ccc(CNC(=O)OCc2cccnc2)cc1 [Entinostat] | 0.904 | 0.811 | 0.957 | 0.923 | 0.727 | 1.04 | 0.967 | 0.939 | 0.906 | 0.947 | 1.09 | 0.937 | 0.912 | 0.891 | 1.01
